Assay results: patent US20230055237A1, “COMPOUNDS AND METHODS FOR THE TREATMENT OF CYSTIC FIBROSIS” (Flatley Discovery Lab, LLC, priority 2019, published 2023)

Target: T1, CFTR (Homo sapiens, UniProt P13569, DEL508-508)
T1 construct: Primary CF airway epithelial cells were obtained from the UNC Cystic Fibrosis Tissue Procurement and Cell Culture Core; host or cells: primary CF airway epithelial cells, differentiated at the air-liquid interface
Assay: Equivalent current assay in primary CF airway epithelial cells (NAUC, combination with 1st site corrector FDL169 or VX-809)
Type: cell-based
Details: 37° C., 24 h

[1] = test compound 1 μM in combination with 1st site corrector FDL169 (3 μM)
[2] = test compound 3 μM in combination with 1st site corrector FDL169 (3 μM)
[3] = test compound 10 μM in combination with 1st site corrector FDL169 (3 μM)

T1 sequence (P13569 with tags, fused parts or gaps DEL508-508): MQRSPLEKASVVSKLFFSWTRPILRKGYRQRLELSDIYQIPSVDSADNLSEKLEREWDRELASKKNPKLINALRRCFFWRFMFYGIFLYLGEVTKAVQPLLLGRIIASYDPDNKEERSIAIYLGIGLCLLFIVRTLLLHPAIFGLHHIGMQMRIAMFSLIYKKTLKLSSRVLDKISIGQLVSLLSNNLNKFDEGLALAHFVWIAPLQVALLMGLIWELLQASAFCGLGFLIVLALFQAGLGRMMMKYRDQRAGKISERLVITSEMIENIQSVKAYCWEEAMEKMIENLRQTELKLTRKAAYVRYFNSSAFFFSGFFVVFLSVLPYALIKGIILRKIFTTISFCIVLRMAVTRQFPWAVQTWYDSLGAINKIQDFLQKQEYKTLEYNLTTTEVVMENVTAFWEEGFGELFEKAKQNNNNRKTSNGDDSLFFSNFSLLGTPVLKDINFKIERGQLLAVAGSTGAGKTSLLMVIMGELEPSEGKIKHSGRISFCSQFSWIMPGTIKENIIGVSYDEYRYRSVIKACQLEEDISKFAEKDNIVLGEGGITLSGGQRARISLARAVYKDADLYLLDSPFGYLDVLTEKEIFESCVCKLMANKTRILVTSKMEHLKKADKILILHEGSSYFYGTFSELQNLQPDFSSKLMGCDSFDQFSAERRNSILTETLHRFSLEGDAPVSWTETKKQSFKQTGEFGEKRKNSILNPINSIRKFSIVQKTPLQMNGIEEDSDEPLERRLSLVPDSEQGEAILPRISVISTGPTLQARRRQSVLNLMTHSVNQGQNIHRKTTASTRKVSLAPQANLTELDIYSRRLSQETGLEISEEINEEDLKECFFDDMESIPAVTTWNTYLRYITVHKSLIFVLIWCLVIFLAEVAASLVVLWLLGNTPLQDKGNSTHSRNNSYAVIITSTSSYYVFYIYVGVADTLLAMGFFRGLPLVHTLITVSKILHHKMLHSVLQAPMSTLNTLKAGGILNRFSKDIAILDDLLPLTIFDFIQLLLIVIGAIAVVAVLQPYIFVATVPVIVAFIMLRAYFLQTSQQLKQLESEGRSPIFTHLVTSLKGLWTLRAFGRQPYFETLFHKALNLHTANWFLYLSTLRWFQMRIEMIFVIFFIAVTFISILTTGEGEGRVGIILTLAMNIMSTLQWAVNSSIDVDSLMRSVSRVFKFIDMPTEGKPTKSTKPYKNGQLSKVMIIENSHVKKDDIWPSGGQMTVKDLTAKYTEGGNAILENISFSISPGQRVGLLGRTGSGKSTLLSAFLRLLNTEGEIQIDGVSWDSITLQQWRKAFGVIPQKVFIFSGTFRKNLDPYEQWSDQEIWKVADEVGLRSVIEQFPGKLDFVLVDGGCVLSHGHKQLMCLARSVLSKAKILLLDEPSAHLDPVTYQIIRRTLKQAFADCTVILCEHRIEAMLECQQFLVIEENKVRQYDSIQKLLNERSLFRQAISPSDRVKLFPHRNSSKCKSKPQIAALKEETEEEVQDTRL

Compound	Nauc @ 1 μM [1]	Nauc @ 3 μM [2]	Nauc @ 10 μM [3]	Nauc @ 1 μM (test compound 1 μM in combination with 1st site corrector VX-809 (3 μM))	Nauc @ 3 μM (test compound 3 μM in combination with 1st site corrector VX-809 (3 μM))	Nauc @ 10 μM (test compound 10 μM in combination with 1st site corrector VX-809 (3 μM))
O=C(O)[C@H]1[C@@H](C(=O)N(CC2CCC2)c2cc(Cl)cc(Cl)c2)[C@H]2CC(F)(F)CN2[C@]12C(=O)Nc1c(Cl)cc(Cl)cc12 [Example 148]	+++ (NAUC “+++” refers to an observed NAUC>170% of positive control)	+++ (NAUC “+++” refers to an observed NAUC>170% of positive control)	+++ (NAUC “+++” refers to an observed NAUC>170% of positive control)	–	–	–
O=C(O)[C@H]1[C@@H](C(=O)N(Cc2ccccc2)c2cc(Cl)cc(Cl)c2)[C@H]2CC(F)(F)CN2[C@]12C(=O)Nc1c(Cl)cc(Cl)cc12 [Example 149]	++ (NAUC “++” refers to an observed NAUC 170-140% of positive control)	+++ (NAUC “+++” refers to an observed NAUC>170% of positive control)	+ (NAUC “+” refers to an observed NAUC <140% of positive control)	–	–	–
O=C(O)[C@H]1[C@@H](C(=O)N(CCO)c2cc(Cl)cc(Cl)c2)[C@H]2CC(F)(F)CN2[C@]12C(=O)Nc1c(Cl)cc(Cl)cc12 [Example 150]	+ (NAUC “+” refers to an observed NAUC <140% of positive control)	+++ (NAUC “+++” refers to an observed NAUC>170% of positive control)	–	–	–	–
CC(C)CN(C(=O)[C@H]1[C@H]2CC(F)(F)CN2[C@]2(C(=O)Nc3c(Cl)cc(Cl)cc32)[C@H]1C(=O)O)c1cc(Cl)cc(Cl)c1 [Example 151]	+++ (NAUC “+++” refers to an observed NAUC>170% of positive control)	+++ (NAUC “+++” refers to an observed NAUC>170% of positive control)	++ (NAUC “++” refers to an observed NAUC 170-140% of positive control)	–	–	–
O=C(O)[C@H]1[C@@H](C(=O)N(c2cc(Cl)cc(Cl)c2)C2CCC2)[C@H]2CC(F)(F)CN2[C@]12C(=O)Nc1c(Cl)cc(Cl)cc12 [Example 152]	+++ (NAUC “+++” refers to an observed NAUC>170% of positive control)	+++ (NAUC “+++” refers to an observed NAUC>170% of positive control)	++ (NAUC “++” refers to an observed NAUC 170-140% of positive control)	–	–	–
CN(C)C(=O)CN(C(=O)[C@H]1[C@H]2CC(F)(F)CN2[C@]2(C(=O)Nc3c(Cl)cc(Cl)cc32)[C@H]1C(=O)O)c1cc(Cl)cc(Cl)c1 [Example 153]	+ (NAUC “+” refers to an observed NAUC <140% of positive control)	+ (NAUC “+” refers to an observed NAUC <140% of positive control)	–	–	–	–
CC(C)(CN(C(=O)[C@H]1[C@H]2CC(F)(F)CN2[C@]2(C(=O)Nc3c(Cl)cc(Cl)cc32)[C@H]1C(=O)O)c1cc(Cl)cc(Cl)c1)C(F)(F)F [Example 154]	+++ (NAUC “+++” refers to an observed NAUC>170% of positive control)	+++ (NAUC “+++” refers to an observed NAUC>170% of positive control)	+ (NAUC “+” refers to an observed NAUC <140% of positive control)	–	–	–
O=C(O)[C@H]1[C@@H](C(=O)N(CC2(C(F)(F)F)CC2)c2cc(Cl)cc(Cl)c2)[C@H]2CC(F)(F)CN2[C@]12C(=O)Nc1c(Cl)cc(Cl)cc12 [Example 155]	+++ (NAUC “+++” refers to an observed NAUC>170% of positive control)	+++ (NAUC “+++” refers to an observed NAUC>170% of positive control)	+ (NAUC “+” refers to an observed NAUC <140% of positive control)	–	–	–
O=C(O)[C@H]1[C@@H](C(=O)N(CC2CC2)c2cccc(-c3ccccc3)c2)[C@H]2CC(F)(F)CN2[C@]12C(=O)Nc1c(Cl)cc(Cl)cc12 [Example 156]	+++ (NAUC “+++” refers to an observed NAUC>170% of positive control)	+++ (NAUC “+++” refers to an observed NAUC>170% of positive control)	++ (NAUC “++” refers to an observed NAUC 170-140% of positive control)	–	–	–
CN(C(=O)[C@H]1[C@H]2CC(F)(F)CN2[C@]2(C(=O)Nc3c(Cl)cc(Cl)cc32)[C@H]1C(=O)O)c1cccc(C(F)(F)F)c1 [Example 157]	++ (NAUC “++” refers to an observed NAUC 170-140% of positive control)	++ (NAUC “++” refers to an observed NAUC 170-140% of positive control)	–	–	–	–
O=C(O)[C@H]1[C@@H](C(=O)N(c2cc(Cl)cc(Cl)c2)C2CC(O)C2)[C@H]2CC(F)(F)CN2[C@]12C(=O)Nc1c(Cl)cc(Cl)cc12 (some centres unmarked) [Example 158]	+ (NAUC “+” refers to an observed NAUC <140% of positive control)	+ (NAUC “+” refers to an observed NAUC <140% of positive control)	–	–	–	–
O=C(O)[C@H]1[C@@H](C(=O)N(c2cc(Cl)cc(Cl)c2)C2CC(O)C2)[C@H]2CC(F)(F)CN2[C@]12C(=O)Nc1c(Cl)cc(Cl)cc12 (some centres unmarked) [Example 159]	+ (NAUC “+” refers to an observed NAUC <140% of positive control)	+ (NAUC “+” refers to an observed NAUC <140% of positive control)	–	–	–	–
CN(C)CCN(C(=O)[C@H]1[C@H]2CC(F)(F)CN2[C@]2(C(=O)Nc3c(Cl)cc(Cl)cc32)[C@H]1C(=O)O)c1cc(Cl)cc(Cl)c1 [Example 160]	+ (NAUC “+” refers to an observed NAUC <140% of positive control)	+ (NAUC “+” refers to an observed NAUC <140% of positive control)	–	–	–	–
CN(C(=O)[C@H]1[C@H]2CC(F)(F)CN2[C@]2(C(=O)Nc3c(Cl)cc(Cl)cc32)[C@H]1C(=O)O)c1cccc(-c2ccccc2)c1 [Example 161]	++ (NAUC “++” refers to an observed NAUC 170-140% of positive control)	+++ (NAUC “+++” refers to an observed NAUC>170% of positive control)	++ (NAUC “++” refers to an observed NAUC 170-140% of positive control)	–	–	–
CN(C(=O)[C@H]1[C@H]2CC(F)(F)CN2[C@]2(C(=O)Nc3c(Cl)cc(Cl)cc32)[C@H]1C(=O)O)c1ccccc1-c1ccccc1 [Example 162]	+++ (NAUC “+++” refers to an observed NAUC>170% of positive control)	+++ (NAUC “+++” refers to an observed NAUC>170% of positive control)	+++ (NAUC “+++” refers to an observed NAUC>170% of positive control)	–	–	–
O=C(O)[C@H]1[C@@H](C(=O)N(CC2CC2)c2cccc(C(F)(F)F)c2)[C@H]2CC(F)(F)CN2[C@]12C(=O)Nc1c(Cl)cc(Cl)cc12 [Example 163]	+++ (NAUC “+++” refers to an observed NAUC>170% of positive control)	+++ (NAUC “+++” refers to an observed NAUC>170% of positive control)	++ (NAUC “++” refers to an observed NAUC 170-140% of positive control)	–	–	–
O=C(O)[C@H]1[C@@H](C(=O)N(CC2CC2)c2cccc(CC(F)(F)F)c2)[C@H]2CC(F)(F)CN2[C@]12C(=O)Nc1c(Cl)cc(Cl)cc12 [Example 164]	+++ (NAUC “+++” refers to an observed NAUC>170% of positive control)	+++ (NAUC “+++” refers to an observed NAUC>170% of positive control)	+++ (NAUC “+++” refers to an observed NAUC>170% of positive control)	–	–	–
Cc1nn(C)cc1N(CC1CC1)C(=O)[C@H]1[C@H]2CC(F)(F)CN2[C@]2(C(=O)Nc3c(Cl)cc(Cl)cc32)[C@H]1C(=O)O [Example 165]	+ (NAUC “+” refers to an observed NAUC <140% of positive control)	+ (NAUC “+” refers to an observed NAUC <140% of positive control)	–	–	–	–
Cn1cc(N(CC2CC2)C(=O)[C@H]2[C@H]3CC(F)(F)CN3[C@]3(C(=O)Nc4c(Cl)cc(Cl)cc43)[C@H]2C(=O)O)c(C(F)(F)F)n1 [Example 166]	+ (NAUC “+” refers to an observed NAUC <140% of positive control)	+ (NAUC “+” refers to an observed NAUC <140% of positive control)	–	–	–	–
Cc1nn(-c2ccccc2)cc1N(CC1CC1)C(=O)[C@H]1[C@H]2CC(F)(F)CN2[C@]2(C(=O)Nc3c(Cl)cc(Cl)cc32)[C@H]1C(=O)O [Example 167]	+ (NAUC “+” refers to an observed NAUC <140% of positive control)	+ (NAUC “+” refers to an observed NAUC <140% of positive control)	–	–	–	–
Cn1cc(N(CC2CC2)C(=O)[C@H]2[C@H]3CC(F)(F)CN3[C@]3(C(=O)Nc4c(Cl)cc(Cl)cc43)[C@H]2C(=O)O)c(C#N)n1 [Example 168]	+ (NAUC “+” refers to an observed NAUC <140% of positive control)	+ (NAUC “+” refers to an observed NAUC <140% of positive control)	–	–	–	–
CN(C(=O)[C@H]1[C@H]2CC(F)(F)CN2[C@]2(C(=O)Nc3c(Cl)cc(Cl)cc32)[C@H]1C(=O)O)c1cc(Cl)cc(Cl)c1 [Example 169]	++ (NAUC “++” refers to an observed NAUC 170-140% of positive control)	+++ (NAUC “+++” refers to an observed NAUC>170% of positive control)	+++ (NAUC “+++” refers to an observed NAUC>170% of positive control)	–	–	–
CN(CC(C)(C)c1cccc(C(C)(C)C)c1)C(=O)[C@H]1[C@H]2CC(F)(F)CN2[C@]2(C(=O)Nc3c(Cl)cc(Cl)cc32)[C@H]1C(=O)O [Example 170]	–	–	–	+++ (NAUC “+++” refers to an observed NAUC>170% of positive control)	+ (NAUC “+” refers to an observed NAUC <140% of positive control)	+ (NAUC “+” refers to an observed NAUC <140% of positive control)
CCN(C(=O)[C@H]1[C@H]2CC(F)(F)CN2[C@]2(C(=O)Nc3c(Cl)cc(Cl)cc32)[C@H]1C(=O)O)c1cc(Cl)cc(Cl)c1 [Example 171]	+++ (NAUC “+++” refers to an observed NAUC>170% of positive control)	+++ (NAUC “+++” refers to an observed NAUC>170% of positive control)	+++ (NAUC “+++” refers to an observed NAUC>170% of positive control)	–	–	–
